Laboratory results as given in patent US20250129078A1, “ERBB2 INHIBITORS” (Cogent Biosciences, Inc., priority 2023, published 2025).

Assays:
[1] = Blood brain barrier penetration assay in CD-1 mice (short oral absorption model, Kpuu brain); assay type: in vivo; settings: mouse, brain and plasma, male CD-1 mice, 1 h post-dose, Kpuu brain = conc (brain)/conc (plasma) x (fu brain/fu plasma)
Protocol: In vitro plasma and brain binding assays were carried out using the equilibrium dialysis method. EDTA-anticoagulated plasma and diluted brain homogenate (1:3 with DPBS pH 7.4) were spiked with 2 μM test compound and dialyzed against an equal volume of 100 μL 100 mM sodium phosphate buffer (pH 7.4) at 37° C. for 4 h in a slowly rotated plate. At the end of the dialysis 50 μL aliquots from the buffer side and matrix side of the dialysis device were taken into new 96-well plates. An equal volume of opposite blank matrix (buffer or matrix) in each sample was added to reach a final volume of 100 μL. All samples were processed by protein precipitation for LC/MS/MS analysis. Unbound fraction (fu) of test compound was calculated by the ratio of buffer side response to the brain homogenate/plasma side response, and unbound fraction (fu,pl and fu,br) of test compound in non-diluted plasma and brain tissue were calculated from measured fu in homogenate and plasma with the following equation: fu,pl or fu,br=1/D/((1/(F/T)-1)+1/D). F is the free compound concentration as determined by the calculated concentration on the buffer side of the membrane and T is the total compound concentration as determined by the calculated concentration on the matrix side of the membrane. D is the dilution factor (D equals 1 for plasma, and 4 for brain).
A short oral absorption model is an in-vivo screening model to identify brain penetration of a compound. Three male CD-1 mice were orally dosed with an appropriate vehicle. At the 1 h timepoint post-dose, blood samples were collected via cardiac puncture, placed into EDTA anti-coagulated tubes, and spiked with 1% 1 mM quinidine (aq). The samples were placed on wet ice until centrifugation at 4000×g for 10 min. Brain tissue was rinsed with saline and the liquid was drained. The brains were weighed and transferred to tubes for homogenization. Each tube contained 1 g tissue, 9 mL buffer (1:2 v/v MeOH:15 mM PBS), and a spike of 1% 1 mM quinidine (aq). All samples were stored at −80° C. prior to LC/MS/MS analysis. Standards were prepared by spiking blank plasma and brain homogenate. Aliquots (10 μL) of sample, calibration standard, quality control, dilution quality control, single blank, and double blank were added to the 96-well plate respectively. Homogenized brain tissue along with plasma samples were precipitated by adding 190 μL cold MeCN containing internal standard (the double blank sample was quenched with 190 L MeCN). The mixture was vortex-mixed for 5 min at 1000 rpm and centrifuged for 10 min at 3220×g, 4° C. […] The free fraction of test compound in biological matrix was determined by using in vitro plasma and brain tissue free fraction. Kpuu brain was calculated by the equation: Kpuu brain=cone (brain)/conc (plasma)×(fu brain/fu plasma).

EGFR WT = EGFR WT (Homo sapiens (Human), UniProt P00533); experiment: ErbB enzyme assay (CisBio HTRF-KinEASE-TK), EGFR WT; assay type: biochemical; settings: ATP at Km (25 μM), 1 h incubation
Summary of the method: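 Tyrosine kinase HTRF, 1 h RT reaction → quench (Sa-XL665/TK-Ab-Cryptate) → 1 h RT → 655/620 ratio.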

ErbB2 V777L = ErbB2 V777L (Homo sapiens (Human), UniProt P04626, V777L); experiment: ErbB enzyme assay (CisBio HTRF-KinEASE-TK), ErbB2 V777L; assay type: biochemical
Summary of the method: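 HTRF KinEASE-TK tyrosine-kinase read-out of substrate phosphorylation after a final 1 h at ambient temperature, from the 655/620 nm emission ratio.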

EGFR wild type = EGFR wild type (Homo sapiens (Human), UniProt P00533); experiment: ErbB cellular phosphorylation assay (phospho-EGFR ELISA), HEK-293 cells expressing EGFR wild type, EGF stimulated; assay type: cell-based; settings: 1 h treatment
Protocol: (§1) HEK-293 cells were engineered to constitutively express ErbB2 mutant L755S or EGFR wild type (constructs obtained from GenScript, Piscataway, NJ). Cells were seeded in poly-D-lysine coated, 96-well plates at a density of 50,000 cells/well in complete medium (DMEM supplemented with 10% fetal bovine serum and G418) and incubated for 24 h at 37° C., 5% CO2 prior to treatment. Cells were treated with compound using three-fold dilutions at final concentrations ranging from […] for 1 h at 37° C., 5% CO2. EGFR-WT cells were stimulated with 500 ng/mL recombinant human EGF (R&D Systems, 236-EG) for an additional 5 min. After compound incubation, medium was removed from the plate, and cells were lysed in buffer containing protease and phosphatase inhibitors ([…]). Cell lysates were analyzed by enzyme-linked immunosorbent assay (ELISA). The ELISAs were performed to measure phosphorylated ErbB2 or phosphorylated EGFR levels, respectively (R&D Systems, DYC-1768, Human Phospho-ErbB2 DuoSet ELISA; DYC1095, Human Phospho-EGFR DuoSet IC ELISA) according to the manufacturer's instructions. Absorbance was measured at 450 nm using a BioTek Cytation 5 plate reader (Agilent, Santa Clara, CA) and IC50 values were calculated using a 4-parameter fit.

ErbB2 mutant L755S = ErbB2 mutant L755S (Homo sapiens (Human), UniProt P04626, L755S); experiment: ErbB cellular phosphorylation assay (phospho-ErbB2 ELISA), HEK-293 cells expressing ErbB2 L755S; assay type: cell-based; settings: 1 h treatment
Protocol: as §1, with “Cells” for “HEK-293 cells were engineered to constitutively express ErbB2 mutant L755S or EGFR wild type (constructs obtained from GenScript, Piscataway, NJ). Cells”

EGFR WT, sequence (P00533 25-1210): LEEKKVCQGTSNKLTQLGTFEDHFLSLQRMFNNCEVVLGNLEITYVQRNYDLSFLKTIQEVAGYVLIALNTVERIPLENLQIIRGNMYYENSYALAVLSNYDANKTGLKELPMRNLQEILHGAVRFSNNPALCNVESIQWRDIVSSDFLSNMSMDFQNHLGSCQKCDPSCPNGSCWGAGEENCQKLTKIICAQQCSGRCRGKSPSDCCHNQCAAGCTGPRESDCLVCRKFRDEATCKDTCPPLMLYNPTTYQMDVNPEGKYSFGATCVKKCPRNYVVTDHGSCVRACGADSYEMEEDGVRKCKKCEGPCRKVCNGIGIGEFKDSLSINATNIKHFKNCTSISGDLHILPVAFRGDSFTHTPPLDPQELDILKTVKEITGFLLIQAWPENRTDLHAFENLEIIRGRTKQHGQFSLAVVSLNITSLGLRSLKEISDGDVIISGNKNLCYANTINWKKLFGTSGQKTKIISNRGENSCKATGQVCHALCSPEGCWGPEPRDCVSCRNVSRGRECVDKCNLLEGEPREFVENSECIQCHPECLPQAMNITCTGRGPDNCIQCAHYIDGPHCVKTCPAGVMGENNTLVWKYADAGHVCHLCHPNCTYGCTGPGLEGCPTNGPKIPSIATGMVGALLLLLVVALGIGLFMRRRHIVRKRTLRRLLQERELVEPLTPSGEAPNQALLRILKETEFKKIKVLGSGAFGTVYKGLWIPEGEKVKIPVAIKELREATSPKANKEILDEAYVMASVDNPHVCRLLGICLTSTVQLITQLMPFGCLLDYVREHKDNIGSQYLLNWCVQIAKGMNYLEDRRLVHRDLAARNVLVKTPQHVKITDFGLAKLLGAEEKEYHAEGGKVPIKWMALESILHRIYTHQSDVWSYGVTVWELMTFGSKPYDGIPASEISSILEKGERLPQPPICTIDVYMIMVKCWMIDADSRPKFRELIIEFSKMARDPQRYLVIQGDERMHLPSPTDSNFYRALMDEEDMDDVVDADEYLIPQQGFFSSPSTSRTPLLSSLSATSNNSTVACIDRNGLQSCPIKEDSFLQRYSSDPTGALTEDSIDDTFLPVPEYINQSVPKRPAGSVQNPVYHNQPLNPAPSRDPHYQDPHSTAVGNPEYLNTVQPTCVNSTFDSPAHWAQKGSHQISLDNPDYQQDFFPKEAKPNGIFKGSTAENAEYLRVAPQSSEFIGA
EGFR wild type, sequence (P00533 25-1210): as above
ErbB2 V777L, sequence (P04626 23-1255 V777L): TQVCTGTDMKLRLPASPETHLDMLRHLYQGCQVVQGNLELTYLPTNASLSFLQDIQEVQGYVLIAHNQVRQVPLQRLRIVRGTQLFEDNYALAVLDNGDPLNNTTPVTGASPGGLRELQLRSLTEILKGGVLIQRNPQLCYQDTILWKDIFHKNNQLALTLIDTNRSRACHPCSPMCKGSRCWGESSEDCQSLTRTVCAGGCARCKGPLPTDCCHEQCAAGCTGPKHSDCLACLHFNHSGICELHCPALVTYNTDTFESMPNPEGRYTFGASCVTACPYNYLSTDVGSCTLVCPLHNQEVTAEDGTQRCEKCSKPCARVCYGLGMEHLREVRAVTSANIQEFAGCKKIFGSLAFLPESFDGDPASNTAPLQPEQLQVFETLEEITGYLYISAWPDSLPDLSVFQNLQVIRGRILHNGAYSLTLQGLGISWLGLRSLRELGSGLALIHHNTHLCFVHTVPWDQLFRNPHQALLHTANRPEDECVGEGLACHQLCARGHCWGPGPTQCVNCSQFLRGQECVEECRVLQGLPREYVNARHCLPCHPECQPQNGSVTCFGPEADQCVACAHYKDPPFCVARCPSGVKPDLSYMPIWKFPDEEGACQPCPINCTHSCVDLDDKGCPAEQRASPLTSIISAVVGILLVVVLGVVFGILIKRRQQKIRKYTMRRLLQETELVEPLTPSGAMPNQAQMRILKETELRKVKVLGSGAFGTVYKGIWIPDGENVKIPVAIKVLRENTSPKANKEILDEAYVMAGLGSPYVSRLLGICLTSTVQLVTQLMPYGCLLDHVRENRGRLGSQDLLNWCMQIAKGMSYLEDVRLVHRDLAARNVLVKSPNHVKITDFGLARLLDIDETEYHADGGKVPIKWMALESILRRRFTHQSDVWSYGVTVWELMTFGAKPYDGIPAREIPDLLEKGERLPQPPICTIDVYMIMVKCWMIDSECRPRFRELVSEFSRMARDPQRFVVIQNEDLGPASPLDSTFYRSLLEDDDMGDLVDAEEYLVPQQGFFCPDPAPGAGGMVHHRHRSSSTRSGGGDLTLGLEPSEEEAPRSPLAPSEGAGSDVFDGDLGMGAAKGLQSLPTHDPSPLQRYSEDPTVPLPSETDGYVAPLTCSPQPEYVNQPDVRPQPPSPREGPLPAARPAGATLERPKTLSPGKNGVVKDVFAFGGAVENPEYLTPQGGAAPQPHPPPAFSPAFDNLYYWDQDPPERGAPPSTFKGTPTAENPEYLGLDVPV
ErbB2 mutant L755S, sequence (P04626 23-1255 L755S): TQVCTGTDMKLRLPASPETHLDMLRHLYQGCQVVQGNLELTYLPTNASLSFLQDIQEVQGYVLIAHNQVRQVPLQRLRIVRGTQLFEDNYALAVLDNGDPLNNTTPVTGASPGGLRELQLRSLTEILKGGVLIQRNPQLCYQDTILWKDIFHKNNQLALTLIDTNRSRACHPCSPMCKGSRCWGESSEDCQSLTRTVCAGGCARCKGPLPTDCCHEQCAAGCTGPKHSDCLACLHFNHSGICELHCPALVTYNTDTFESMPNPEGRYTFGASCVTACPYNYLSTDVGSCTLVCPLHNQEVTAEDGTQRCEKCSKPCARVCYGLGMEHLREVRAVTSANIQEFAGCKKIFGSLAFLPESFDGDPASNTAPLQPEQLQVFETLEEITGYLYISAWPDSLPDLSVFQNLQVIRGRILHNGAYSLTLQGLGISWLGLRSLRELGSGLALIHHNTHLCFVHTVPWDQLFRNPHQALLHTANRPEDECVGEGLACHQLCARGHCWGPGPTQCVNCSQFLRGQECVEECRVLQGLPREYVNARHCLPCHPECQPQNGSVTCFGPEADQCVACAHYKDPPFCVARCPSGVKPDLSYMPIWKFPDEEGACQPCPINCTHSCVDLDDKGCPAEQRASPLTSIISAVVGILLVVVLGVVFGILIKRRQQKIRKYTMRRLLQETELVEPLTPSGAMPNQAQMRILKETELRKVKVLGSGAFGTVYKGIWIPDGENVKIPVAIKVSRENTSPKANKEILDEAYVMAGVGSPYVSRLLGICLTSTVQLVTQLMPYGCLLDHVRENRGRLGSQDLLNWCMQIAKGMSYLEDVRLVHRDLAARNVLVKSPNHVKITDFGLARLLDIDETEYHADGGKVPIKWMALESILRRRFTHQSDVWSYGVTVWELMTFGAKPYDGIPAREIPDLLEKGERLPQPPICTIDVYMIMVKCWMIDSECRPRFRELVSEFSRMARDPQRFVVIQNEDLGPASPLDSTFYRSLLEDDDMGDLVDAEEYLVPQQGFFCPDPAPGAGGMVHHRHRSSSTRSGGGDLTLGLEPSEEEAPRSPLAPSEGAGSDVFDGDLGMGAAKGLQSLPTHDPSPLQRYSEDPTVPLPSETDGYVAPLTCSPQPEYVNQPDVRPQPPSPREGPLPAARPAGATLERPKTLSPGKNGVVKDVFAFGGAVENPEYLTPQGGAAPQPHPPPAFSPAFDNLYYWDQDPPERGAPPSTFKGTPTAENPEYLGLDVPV

For `C=CC(=O)N1CCN(c2ncc3ncnc(Nc4ccc(Oc5ccc6c(c5)nnn6C)c(C)c4)c3n2)CC1` [Compound 5, 1-(4-(8-((3-methyl-4-((1-methyl-1H-benzo[d][1,2,3]triazol-5-yl)oxy)phenyl)amino)pyrimido[5,4-d]pyrimidin-2-yl)piperazin-1-yl)prop-2-en-1-one], the Kp uu at 1 h [1] was 0.22 and the IC50 (EGFR WT) was 0.1 to 0.5 µM.
In the case of `C=CC(=O)N1CCN(c2ncc3ncnc(Nc4ccc(Oc5cc(F)c6c(c5)ncn6C)c(C)c4)c3n2)CC1` [Compound 64, 1-(4-(8-((4-((7-fluoro-1-methyl-1H-benzo[d]imidazol-5-yl)oxy)-3-methylphenyl)amino)pyrimido[5,4-d]pyrimidin-2-yl)piperazin-1-yl)prop-2-en-1-one], the Kp uu at 1 h [1] is reported as 0.12, the IC50 (ErbB2 V777L) is reported as under 0.05 µM and the IC50 (EGFR WT) is reported as under 0.05 µM.
Molecule `C=CC(=O)N1CCN(c2ncc3ncnc(Nc4ccc(Oc5ccc6c(c5)nnn6C)c(C)c4)c3n2)CC1(C)C` [Compound 3, 1-(2,2-dimethyl-4-(8-((3-methyl-4-((1-methyl-1H-benzo[d][1,2,3]triazol-5-yl)oxy)phenyl)amino)pyrimido[5,4-d]pyrimidin-2-yl)piperazin-1-yl)prop-2-en-1-one] has an IC50 (EGFR wild type) of at least 5 µM, an IC50 (ErbB2 V777L) of 0.05 to 0.1 µM and an IC50 (ErbB2 mutant L755S) of 0.1 to 0.5 µM. The IC50 (EGFR WT) was 0.1 to 0.5 µM.
For `C=CC(=O)N1CCN(c2ncc3ncnc(Nc4ccc(Oc5cnc6c(c5)ncn6C)c(C)c4)c3n2)CC1` [Compound 235, 1-(4-(8-((3-methyl-4-((3-methyl-3H-imidazo[4,5-b]pyridin-6-yl)oxy)phenyl)amino)pyrimido[5,4-d]pyrimidin-2-yl)piperazin-1-yl)prop-2-en-1-one], the Kp uu at 1 h [1] was 0.04 and the IC50 (EGFR WT) was 0.1 to 0.5 µM.
With `CC#CC(=O)N1CCN(c2ncc3ncnc(Nc4ccc(Oc5ccc6c(c5)nnn6C)c(C)c4)c3n2)CC1` [Compound 55, 1-(4-(8-((3-methyl-4-((1-methyl-1H-benzo[d][1,2,3]triazol-5-yl)oxy)phenyl)amino)pyrimido [5,4-d]pyrimidin-2-yl)piperazin-1-yl) but-2-yn-1-one] the IC50 (EGFR wild type) was at least 5 µM, the IC50 (ErbB2 V777L) was 0.1 to 0.5 µM and the IC50 (ErbB2 mutant L755S) was 0.1 to 0.5 µM. The IC50 (EGFR WT) was 0.5 to 1 µM.
`C=CC(=O)N1CCN(c2ncc3ncnc(Nc4ccc(Oc5ccc6c(c5)ncn6C)c(C)c4)c3n2)CC1` [Analog of compound 5, reference compound] gave a Kp uu at 1 h [1] of 0.04.
With `C=CC(=O)N1CCN(c2ncc3ncnc(Nc4cc(C)c(Oc5ccc6c(c5)ncn6C(F)F)cc4OC)c3n2)C[C@H]1C` [Compound 39, (R)-1-(4-(8-((4-((1-(difluoromethyl)-1H-benzo[d]imidazol-5-yl)oxy)-2-methoxy-5-methylphenyl)amino)pyrimido[5,4-d]pyrimidin-2-y1)-2-methylpiperazin-1-yl)prop-2-en-1-one] the IC50 (EGFR wild type) was at least 5 µM, the IC50 (ErbB2 V777L) was 0.1 to 0.5 µM and the IC50 (ErbB2 mutant L755S) was 0.1 to 0.5 µM. It also gave an IC50 (EGFR WT) of 0.5 to 1 µM.
Work on `C=CC(=O)N1CCN(c2ncc3ncnc(Nc4ccc(Oc5cc(F)c6c(c5)nnn6C)c(C)c4F)c3n2)C[C@H]1C` [Compound 49, (R)-1-(4-(8-((2-fluoro-4-((7-fluoro-1-methyl-1H-benzo[d][1,2,3]triazol-5-yl)oxy)-3-methylphenyl)amino)pyrimido[5,4-d]pyrimidin-2-yl)-2-methylpiperazin-1-yl)prop-2-en-1-one] yielded an IC50 (EGFR wild type) of at least 5 µM, an IC50 (ErbB2 V777L) of 0.1 to 0.5 µM and an IC50 (ErbB2 mutant L755S) of 0.1 to 0.5 µM. For the same molecule, the IC50 (EGFR WT) was under 0.05 µM.
Molecule `C=CC(=O)N1CCN(c2ncc3ncnc(Nc4ccc(Oc5cc(F)c6c(c5)nnn6C)c(C)c4F)c3n2)CC1` [Compound 33, 1-(4-(8-((2-fluoro-4-((7-fluoro-1-methyl-1H-benzo[d][1,2,3]triazol-5-yl)oxy)-3-methylphenyl)amino)pyrimido [5,4-d]pyrimidin-2-yl)piperazin-1-yl)prop-2-en-1-one] has an IC50 (EGFR wild type) of at least 5 µM, an IC50 (ErbB2 V777L) of 0.05 to 0.1 µM and an IC50 (ErbB2 mutant L755S) of under 0.1 µM. For the same molecule, the IC50 (EGFR WT) was under 0.05 µM.
`C=CC(=O)N1CCN(c2ncc3ncnc(Nc4ccc(Oc5ccc6c(c5)nnn6C)c(C)c4)c3c2OC)CC1` [Compound 105] gave an IC50 (EGFR wild type) of at least 5 µM, an IC50 (ErbB2 V777L) of 0.1 to 0.5 µM and an IC50 (ErbB2 mutant L755S) of 0.1 to 0.5 µM. It also gave an IC50 (EGFR WT) of 0.5 to 1 µM.
